Measured values as given in EP0039388A2, “Diagnostic method for the determination of the liver function” (Röhm Pharma GmbH, priority 1980, dated 1981).
Entries after “also recorded” stand apart in the source; their conditions may differ. Read-outs that look alike come from different tables or passages of the source.

Columns and labels:
Type in all cases: in vivo, Menschen
[1] = Ratio of TA to OH-TA-Ester in plasma and/or urine after oral administration of triamterene (liver function test); settings: for Verhältnis des OH-TA-Esters zu TA: printed as (x):1
From the text: Es wurde gefunden, daß sich Einschränkungen der Leberfunktion mit sehr geringem Aufwand und mit großer diagnostischer und analytischer Sicherheit nachweisen lassen, wenn man 2,4,7-Triamino-6-phenylpteridin (Triamteren = TA) dem Patienten oral verabreicht und in geeignetem zeitlichen Abstand das Verhältnis TA zu OH-TA-Ester im Plasma und/oder im Urin des Patienten bestimmt. Bei normaler Leberfunktion beträgt das Verhältnis TA zu OH-TA-Ester 1:3 bis 1:10. […] Man findet demnach je nach Einschränkung der Leberfunktion mehr natives TA als OH-TA-Ester, was als eine direkte Auswirkung der gestörten Funktion der Leber zu metabolischer Umwandlung von körperfremden Stoffen im Organismus und damit als Indikator für die Leberfunktion überhaupt gewertet werden kann.
Die Verabreichung des Triamteren zur erfindungsgemäßen Bestimmung der Leberfunktionseinschränkung geschieht oral. Bei der Herstellung der Verabreichungsformen (Kapseln, Tabletten etc.) und der Verabreichung selbst, kann von den Erfahrungen mit Triamteren als Therapeutikum ausgegangen werden. Die zur Durchführung des erfindungsgemäßen diagnostischen Verfahrens benötigten Mengen an Triamteren können innerhalb gewisser Grenzen schwanken, beispielsweise zwischen 50 und 300 mg, vorzugsweise bis 100 mg. Zur Einhaltung standardisierter Bedingungen kann es zweckmäßig sein, gleichbleibende Quantitäten an Triamteren zu verabreichen. Dabei kann vorteilhaft von bereits auf dem Markt befindlichen Handelsformen (z. B. Kapseln mit 50 mg Triamteren Jatropur^R) Gebrauch gemacht werden.
(§1) Bei dem Test wurde darauf geachtet, daß die Versuchspersonen der gleichen Altersgruppe und dem gleichen Geschlecht angehörten und eine annähernd gleiche Nierenfunktion vorlag. Während der Versuchsperiode waren sie stationär aufgenommen und unterlagen denselben Ernährungsbedingungen. Außer den unumgänglich notwendigen, wurden alle anderen Medikamente, insbesondere Diuretika vor Versuchsbeginn abgesetzt.
Die Plasmahalbwertszeiten wurden nach der Formel t50 % = [formula] berechnet, die Flächen unter den Kurven konnten mit Hilfe der Trapezregel errechnet werden. […]

[2] = Plasma half-lives of TA and OH-TA-Ester after oral triamterene; settings: for half-life: human, plasma, po, read-out: Plasmahalbwertszeiten (converted)
From the text: as §1
Die Plasmahalbwertszeiten wurden nach der Formel t50 % = [formula] berechnet, die Flächen unter den Kurven konnten mit Hilfe der Trapezregel errechnet werden.
Die Plasmaproben werden mit dem doppelten Volumen Methanol verdünnt, das ausfallende Protein ausgefällt. Vom Überstand wird ein definierter Anteil auf Kieselgel-Platten (z. B. Kieselgel-60-Fertigplatten "Merck") ohne Fluoresz.enzindi- kator aufgetragen. Anschließend wird mit dem Fließmittel Essigsäureethylester/Methanol/Ammoniak 25 %ig (60 + 30 + 10) bei Kammersättigung chromatographiert. Danach werden die Platten getrocknet und die Substanzen fluoreszenzspektroskopisch gemessen.

[3] = Urinary excretion of TA and OH-TA-Ester after oral triamterene
From the text: as §1
Die Durchführung des erfindungsgemäßen diagnostischen Verfahrens kann ebenfalls mit dem Urin der Patienten erfolgen. Während einer Versuchsdauer von 5 Tagen konnte TA und der OH-TA-Ester nachgewiesen werden.
Analog kann auch die Konzentration von TA und OH-TA-Ester im Urin bestimmt werden.

In the case of `Nc1nc(N)c2nc(-c3ccc(OS(=O)(=O)O)cc3)c(N)nc2n1` [OH-TA-Ester], the “Verhältnis des OH-TA-Esters zu TA” value ([1]; Lebergesunde) is reported as 4-10, the “Verhältnis des OH-TA-Esters zu TA” value ([1]; Leberzirrhotiker, ratio reversed in one cirrhotic) is reported as 1-3,2 and the “Konzentration des OH-TA-Esters in Plasma höher als die der nativen Substanz Triamteren (TA)” value ([1]; subjects with healthy liver, plasma, fold over TA) is reported as “vier- bis zwölffache”. For the same compound, the “Plasmahalbwertszeiten, change in Leberzirrhotiker versus Lebergesunde” value ([2]; Leberzirrhotiker compared with Lebergesunde) was “auf das Doppelte verlängert; also recorded: deutlich erhöht, beispielsweise verdoppelt”, the “Ausscheidung im Harn beendet” value ([3]; Lebergesunde, time after which excretion has ended) was 72 Stunden and the “Ausscheidung im Harn nicht völlig abgeschlossen” value ([3]; Leberzirrhotiker, excretion still not fully complete at this time) was > 5 Tagen. The “Nachweis im Urin” value ([3]; patients' urine, test duration of 5 days) was “nachgewiesen”.
In the case of `Nc1nc(N)c2nc(-c3ccccc3)c(N)nc2n1` [TA, 2,4,7-Triamino-6-phenylpteridin], the half-life ([2]; Lebergesunde) is reported as ~5.5 h, the half-life ([2]; Leberzirrhotiker, average) is reported as 11.2 h and the “Ausscheidung im Harn beendet” value ([3]; in vivo) is reported as 72 Stunden. The “Ausscheidung im Harn nicht völlig abgeschlossen” value ([3]; in vivo) was > 5 Tagen.
